Columns and labels:
Assay type in all cases: cell-based, mouse
Chop, Atf4, Sqstm1 = test: RT-PCR of ER stress-related genes in activated B cells
Experimental: For mRNA analysis, total mRNA was isolated from mouse and human B cells by RNeasy Micro kit (Qiagen), reverse transcribed from mRNA to cDNA for subsequent real-time PCR analysis. Scd1, Scd2, Fasn, Acaca, Chop, Atf4, Sqstm1 in mouse B cells and Scd, Fasn, Acaca expression in human B cells were measured by real-time PCR with a Bio-Rad Realtime PCR system. β-actin expression was used as control.

[1] = tested on: LC3-I/LC3-II, p-S6, p-S6K, AID; test: Immunoblot of LC3-I/LC3-II, p-S6, p-S6K and AID in activated murine B cells
Experimental: For immunoblotting, cells were lysed in lysis buffer with protease and phosphatase inhibitors (Sigma-Aldrich). Protein concentration in samples were quantified by BCA assay (Thermo Fisher Scientific) before loading the samples for electrophoresis and membrane transfer. The transferred membrane was blocked with TBST (0.1% Tween 20) containing 5% BSA for 1 hour at room temperature. The membrane was incubated with primary antibodies overnight including anti-p-S6 (Ser235/Ser236, D57.2.2E; Cell Signaling), anti-p-p70 S6 kinase (Thr389, 108D2; Cell Signaling), anti-p-4E-BP1 (Thr37/46, 236B4; Cell Signaling), anti-LC3α/β (G-4; Santa Cruz); anti-p-ULK1 (Ser757, D706U; Cell Signaling), anti-AID (EK2 5G9; Cell Signaling), anti-β-actin (13E5; Sigma-Aldrich), and anti-SCD2 (H-12; Santa Cruz). Then, the membrane was washed and incubated with the corresponding secondary antibody for subsequent enhanced chemiluminescence (ECL; Thermo Fisher) exposure. The band intensity of all the immunoblot was analyzed by ImageJ software.

activated murine B cells = test: Seahorse OCR / ECAR in activated murine B cells
Experimental: The bioenergetic activities of the OCR and ECAR were measured using a Seahorse XFe96 Extracellular Flux Analyzed following established protocols (Agilent). Briefly, B cells were seeded at 200,000 cells/well on Cell-Tak (Corning) coated XFe96 plate with fresh XF media (Seahorse XF RPMI medium containing 10 mM glucose, 2 mM L-glutamine, and 1 mM sodium pyruvate, PH 7.4; all reagents from Agilent). OCR was measured in the presence of Oligomycin (1.5 μM; Sigma-Aldrich), FCCP (1.5 μM; Sigma-Aldrich), and Rotenone (1 μM; Sigma-Aldrich)/Antimycin A (1 μM; Sigma-Aldrich) in Mito Stress assay. For ECAR measurement, B cells were seeded in XFe96 plate with fresh Seahorse XF RPMI medium with 2 mM L-glutamine (PH 7.4), and treated with glucose (10 mM; Agilent), Oligomycin (1.5 and 2-DG (50 mM; Sigma-Aldrich) orderly in Glycolysis Stress assay.

murine B cells = test: Murine B cell proliferation (CellTrace Violet, cell number) and class switch to IgG1 in vitro
Experimental: Mouse B cells were isolated from pooled single cell suspensions of spleen and peripheral lymph nodes using CD19 Microbeads (Miltenyi) or Mouse B cell Isolation Kit (Stemcell Technologies). B cells were stimulated with LPS (10 μg/mL; Sigma-Aldrich) and recombinant IL-4 cytokine (10 ng/mL; Tonbo Bioscience) with or without SCD inhibitor SSI-4, and proliferation was measured by dilution of CellTrace Violet proliferation dye (Thermo Fisher Scientific). B cells were also stimulated with anti-IgM (10 μg/mL; Jackson ImmunoResearch), anti-CD40 (10 μg/mL; BioXcell) and IL-4 (10 ng/mL; Tonbo Bioscience), or TLR ligand CpG (2.5 μM; IDT), recombinant IL-4 and IL-5 (10 ng/mL; Tonbo Bioscience) cytokines. To test the function of monounsaturated and saturated fatty acids, B cells were activated in presence of exogenous fatty acid-BSA conjugate. Palmitoleic acid (NU-CHEK PREP, INC), palmitic acid (NU-CHEK PREP, INC), stearic acid (NU-CHEK PREP, INC) were conjugated with fatty acid free BSA (Sigma-Aldrich) as described elsewhere (Wang et al., Immunity 35:871-882 (2011)). Human B cells were activated with CpG OND2006 (2.5 μM; IDT), recombinant human cytokine IL-10 ([…]; Peprotech), IL-15 (10 ng/mL; Peprotech), IL-4 (10 ng/mL; Biolegend), IL-2 (10 unit/mL) and anti-human CD40 (1 μg/mL; BioXcell). Human B cell proliferation was measured by ^3[H]-thymidine incorporation (1 μCi/mL) (American Radiolabeled Chemicals). For analysis of surface markers, cells were stained in PBS containing 1% (w/v) bovine serum albumin on ice for 30 minutes, with anti-IgG1 (RMG1-1, Biolegend), anti-CD19 (ID3, Biolegend) anti-B220 (RA3-6B2, Biolegend), anti-CD4 (GK1.5, Biolegend), anti-CD8 (53-6.7, Biolegend), anti-CD25 (PC16, Biolegend), anti-GL7 (GL-7, Biolegend), anti-CD95 (Jo2, BD Biosciences), anti-CD138 (281-2, Biolegend), anti-IgD (11-26c.2a, Biolegend), anti-PD-1 (J43, ThermoFisher), anti-IgM (II/41, ThermoFisher). Antigen specific GC response was detected with tetramer NP-phycoerythrin conjugated with PE (Biosearch Technologies). CXCR5 was stained with biotinylated anti-CXCR5 (2G8) followed by staining with streptavidin-conjugated PE (both from BD Biosciences). Cell viability was assessed using the Fixable Dye Ghost 510 (Tonbo Bioscience) or Annexin V cell apoptosis kit with 7-AAD (ThermoFisher) following the manufacturer's protocol. Phosflow staining for phospho-S6 (S235/236) was performed using Phosflow Fix/Perm kit (BD Biosciences). Mitochondrial potential was measured by staining with 20 nM TMRM (ThermoFisher) following manufacturer's instructions. Flow cytometry was performed on the LSR II, LSR Fortessa (BD Biosciences) or Attune NxT (ThermoFisher) cytometers, and analysis was performed using FlowJo software (Tree Star).

[2] = LPS/IL-4 activated, fatty acid-BSA conjugate, no inhibitor

## CCCCCCCC/C=C\CCCCCCCC(=O)O [OA, oleic acid]
Chop, Atf4, Sqstm1; SSI-4 plus OA
  ER stress-related gene upregulation with exogenous OA: reduced these genes upregulation
[1]; SSI-4 treated or SCD1/2 deficient B cells plus OA
  levels of p-S6K and p-S6 with exogenous OA: restored
[1]; SSI-4 treated or SCD deficient B cells plus OA
  increased LC3-II/LC3-I ratio with exogenous OA: completely rescued
Activated murine B cells; exogenous OA 1, 10, 20 and 50
  OA mediated increase of basal respiration with titrated doses: dose dependent
Activated murine B cells; exogenous fatty acid, 48 h, Glycolysis Stress test
  glycolytic capacity of activated murine B cells: increased the glycolytic capacity
Activated murine B cells; exogenous fatty acid, 48 h, CpG/IL-4/IL-5 (PO: CpG and anti-IgM/anti-CD40) stimulation
  B cell respiration (OCR): enhanced B cell respiration
Murine B cells; 100 nM SSI-4 plus exogenous 100 μM OA, 3 days, LPS/IL-4/IL-5, anti-IgM/anti-CD40/IL-4 or CpG/IL-4/IL-5
  rescue of proliferation defects caused by SCD inhibition: able to rescue the proliferation defects
Murine B cells; B cells from Scd1 and Scd2 deficient mice, LPS/IL-4
  rescue of proliferation and IgG1 class switch in SCD1/2 deficient B cells: fully restored
Murine B cells; LPS/IL-4, SSI-4 with exogenous fatty acid
  rescue of proliferation and IgG1 class switch upon SSI-4 treatment: fully restore both parameters
Murine B cells; [2]
  B cell proliferation, exogenous fatty acid alone: further enhanced
  IgG1 class switch, exogenous fatty acid alone: further enhanced

## CNC(=O)c1ccnc(NC(=O)N2CCC(Oc3ccccc3Cl)CC2)c1 [SSI-4, 2-{[4-(2-Chlorophenoxy)piperidine-1-carbonyl]amino}-N-methylpyridine-4-carboxamide]
Chop, Atf4, Sqstm1; SSI-4 treatment
  ER stress-related genes Chop, Atf4, Sqstm1: increased
[1]; SSI-4 treated B cells
  levels of p-S6K and p-S6: decreased
[1]; SSI-4 treated B cells vs control cells
  LC3-II/LC3-I ratio: substantial increase
[1]; SSI-4 treatment
  expression of activation-induced cytidine deaminase (AID): Reduced expression
Activated murine B cells; SSI-4, 48 hours
  B cell glycolysis (ECAR) under SCD inhibition: strongly suppressed
  B cell respiration (OCR) under SCD inhibition: strongly suppressed
Murine B cells; LPS/IL-4, SCD inhibitor SSI-4 alone
  IgG1 class switch: strongly suppressed
Murine B cells; LPS/IL-4 activated, SCD inhibitor alone
  proliferation of mouse B cells (CTV dilution): capable of inhibiting B cell proliferation

— patent publication US11833144B2, “Treating autoimmune disease” (Mayo Foundation for Medical Education and Research, priority 2020, dated 2023)
